Like-named read-outs stand apart in the source and are kept apart here.
Experiments:
cAMP levels in PMNs = assay: Cyclic-3',5'-adenosine monophosphate levels (cAMP) in PMNs; assay type: cell-based; details: 1 h
Protocol: (§1) Polymorphonuclear neutrophils (PMNs) were collected from the peritoneal cavity four hr after the injection of 35 ml of 0.5% oyster glycogen in isotonic saline (Orange et al., J. Exp. Med., 127, 767 1968). The PMNs were centrifuged down at 800 g for 20 min, washed, and resuspended in minumen essential medium (MEM) with 10% fetal calf serum pH 7.4.
Isolated PMNs were incubated with test drugs at 5μ moles for 1 hr at 37° C. in MEM at pH 7.4. The reaction was stopped with 6% trichloroacetic acid. The cyclic-3',5'-adenosine monophosphate levels were determined by the radioimmunoassay of Gilman, Proc. Natl. Acad. Sci. (USA), 67, 305 (1970), using 3H(G)-cyclic-3',5'-adenosine monophosphate (39.8 Cu/m mol). Results were calculated in p mole/10^7 PMNs cells.

Cathepsin [1] = assay: Lysosomal free cathepsin activity, PMNs; assay type: cell-based; details: 5 μmoles; for PMNs % Free Cathespin Activity, pH5: in vitro, 60 min
Protocol: as §1
(§2) Acid phosphatase activity (Gianetto et al., Biochem J., 59, 433 1955) was carried out by incubating with 0.1 Mβ-glycerol phosphate in 0.1 M acetate, pH 5.0 with 5 μmoles of test drugs in 1% carboxymethylcellulose (CMC) for 20 min with liver homogenate and 60 min with resuspended PMNs. Lysosome enzymes were released by 0.02% alkyl phenoxy polyethoxy ethanol-100 to obtain the total enzymatic activity. The reaction was stopped with 10% trichloroacetic acid and the solution centrifuged. Aliquots of the supernatant were assayed for inorganic phophate content by the method of Chen et al., Anal Chem., 28, 1756 (1956). Percent free acid phosphatase was calculated. Cathepsin activity was determined in an analagous manner except the substrate used was 2% azocasein (Schleuning et al., Methods in Enzymology, XLV, 330 1976) in 0.1 M acetate buffer pH 5.0. The supernatant was assayed for acid soluble peptide fragments at 366 nm. Percent free cathepsin activity was calculated.

[2] = target: T1, prostaglandin synthetase from beef seminal vesicle (Bos taurus, UniProt O62664); assay: Prostaglandin synthetase activity; assay type: biochemical; details: 10^-6 M; for activity at 1 µM: 1 h, read-out: Prostaglandin Synthesis; for inhibition at 1 µM: read-out: inhibition of prostaglandin synthesis
T1 construct: purchased; host or cells: beef seminal vesicle
T1 sequence (O62664 25-600): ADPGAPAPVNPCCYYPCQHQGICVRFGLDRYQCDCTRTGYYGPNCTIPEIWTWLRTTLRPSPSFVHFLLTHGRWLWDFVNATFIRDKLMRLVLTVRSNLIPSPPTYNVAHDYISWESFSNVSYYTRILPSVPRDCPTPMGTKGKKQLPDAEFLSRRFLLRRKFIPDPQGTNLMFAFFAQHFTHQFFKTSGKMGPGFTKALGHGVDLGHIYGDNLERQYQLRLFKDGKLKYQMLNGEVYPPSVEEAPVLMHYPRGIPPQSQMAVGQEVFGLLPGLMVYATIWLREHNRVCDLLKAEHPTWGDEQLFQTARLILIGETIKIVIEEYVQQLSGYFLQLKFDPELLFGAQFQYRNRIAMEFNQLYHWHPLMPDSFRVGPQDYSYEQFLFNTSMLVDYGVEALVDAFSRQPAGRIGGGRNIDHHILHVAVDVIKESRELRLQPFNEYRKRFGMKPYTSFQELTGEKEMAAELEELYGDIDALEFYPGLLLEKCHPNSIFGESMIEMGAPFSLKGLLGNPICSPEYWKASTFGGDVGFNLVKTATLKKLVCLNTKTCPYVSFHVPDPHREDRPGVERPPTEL
Protocol: After 1 hr at 37° C. the reaction was stopped with 1 N HCl and extracted with ethyl ether and evaporated. […] The plates were dried and developed in iodine vapor and with the use of prostaglandin standards the appropriate areas were scraped and counted for ^3 H content. Indometacin was used as a standard at 10^-4 M concentration. Test drugs were used at 10^-6 M.

liver mitochondria [3] = assay: Oxidative phosphorylation, succinate as substrate; assay type: biochemical, rats; details: 5 μmoles; for Oxidative Phosphorylation Succinate State 3: ADP stimulated respiration; for Oxidative Phosphorylation Succinate State 4: basal respiration
Protocol: (§3) Basal and adenosine diphosphate stimulated respiration on 10% liver homogenates was measured using succinate or αketoglutarate as substrate. See Glatt, et al., supra. The reaction vessel contained sucrose 55μ moles, KCl 22μ moles, K2 HPO4 22μ moles, test compounds at 5μ moles in 1% CMC and sodium succinate 90μ moles or αketoglutarate 60μ moles in a total volume of 1.8 ml. […] The rate of respiration was calculated at μl of O2 consumed/hr/mg wet weight of liver.

[4] = tested on: carrageenan induced edema in mouse foot pads; assay: Anti-inflammatory screen (carrageenan induced foot edema); assay type: in vivo, mice; details: for Anti-inflammatory Screen: 10 mg/kg × 2 intraperitoneally, mice
Protocol: CF1 male mice (about 30 g) were administered test drugs at 10 mg/kg in 0.05% polysorbate .80-water intraperitoneally 3 hr and 30 min prior to 0.05 ml of 2% carrageenan in 0.9% saline injected into the plantar surface of the right hind foot. Saline injected into the left hind foot served as a base line. After 3 hr, both feet were excised at the tibiotarsal (ankle) joint according to the modified (Roszkowski et al., J. Pharm. Exp. Ther., 179, 114 1971) method of Winter, resulting in an 87 mg net increase in the weight of the control animals' feet.

Cathepsin [5] = assay: Lysosomal free cathepsin activity, liver homogenate; assay type: biochemical, rats; details: 5 μmoles; for Liver % Free Cathepsin Activity, pH5: in vitro, 20 min
Protocol: (§4) Lysosomal enzymatic assays - Sprague Dawley rats (about 160 g) were sacrificed, the liver excised, and a 10% homogenate (4x) in 0.25 M sucrose and 0.001 M (ethylenedinitrilo) tetra acetic acid, ph 7.2 was prepared.
as §2

liver mitochondria [6] = assay: Oxidative phosphorylation, α-ketoglutarate as substrate; assay type: biochemical, rats; details: 5 μmoles; for Oxidative Phosphorylation α Ketoglutarate State 3: ADP stimulated respiration; for Oxidative Phosphorylation α Ketoglutarate State 4: basal respiration
Protocol: as §3

Acid phosphatase [7] = assay: Lysosomal free acid phosphatase activity, PMNs; assay type: cell-based; details: 5 μmoles, in vitro; 60 min
Protocol: as §1, §2

CF1 male mice = assay: Writhing reflex (acetic acid); assay type: in vivo; details: for Writhing Reflex: 20 mg/kg intraperitoneally, mice
Protocol: CF1 male mice were administered test drugs at 20 mg/kg intraperitoneally 20 min (see Hendershat et al., J. Pharmacol Exp. Ther. 125, 237 1959) prior to the administration of 0.5 ml of 0.6% acetic acid (Vingar et al., European J. PHarmacol, 37, 23 1976). After 5 min the number of stretches, characterized by repeated contractures of the abdominal musculature accompanied by extension of the hind limbs, was counted for the next 10 min. The control mice had 78 stretch reflexes per 10 min.

Acid phosphatase [8] = assay: Lysosomal free acid phosphatase activity, liver homogenate; assay type: biochemical, rats; details: 5 μmoles, in vitro; 20 min
Protocol: as §4, §2

in vivo = details: mouse
[9] = pH 7.4, 5 μmoles, in vitro, read-out: PMNs cAMP Level
[10] = pH 7.4, read-out: PMNs cAMP Level

## [BH3-][NH+](C)C [IV, (CH3)2 NH.BH3]
cAMP levels in PMNs; [9]
  activity at 5 µmol: 80%
Cathepsin [1]
  PMNs % Free Cathespin Activity, pH5: 65 ± 5 % Control
[2]
  activity at 1 µM: 100 ± 5%
Liver mitochondria [3]
  Oxidative Phosphorylation Succinate State 3: 82 ± 4 % Control
  Oxidative Phosphorylation Succinate State 4: 119 ± 9 % Control
[4]
  Anti-inflammatory Screen: 66 % Control
Cathepsin [5]
  Liver % Free Cathepsin Activity, pH5: 67 ± 3 % Control
Liver mitochondria [6]
  both states 3 and 4 respiration with α-ketoglutarate: inhibited
  Oxidative Phosphorylation α Ketoglutarate State 3: 53 ± 16 % Control
  Oxidative Phosphorylation α Ketoglutarate State 4: 67 ± 18 % Control
Acid phosphatase [7]
  PMNs % Free Acid Phosphatase Activity, pH5: 82 ± 6 % Control
CF1 male mice
  Writhing Reflex: 37 % Control
Acid phosphatase [8]
  Liver % Free Acid Phosphatase Activity, pH5: 82 ± 3 % Control
In vivo
  LD50: 200 mg/kg

## C[N+](C)(C)[BH2-]I [IX, (CH3)3 N.BH 2 I]
cAMP levels in PMNs; [9]
  activity at 5 µmol: 133%
cAMP levels in PMNs; in vitro incubation, 5 μmoles, read-out: increase of cyclic adenosine monophosphate levels in PMNs
  activation at 5 µmol: 33%
Cathepsin [1]
  PMNs % Free Cathespin Activity, pH5: 40 ± 4 % Control
[2]
  inhibition at 1 µM: > 30%
  activity at 1 µM: 67 ± 5%
Liver mitochondria [3]
  Oxidative Phosphorylation Succinate State 3: 63 ± 9 % Control
  Oxidative Phosphorylation Succinate State 4: 120 ± 12 % Control
[4]
  Anti-inflammatory Screen: 66 % Control
Cathepsin [5]
  inhibition of free proteolytic cathepsin activity of liver: at least 75%
  Liver % Free Cathepsin Activity, pH5: 14 ± 3 % Control
Liver mitochondria [6]
  Oxidative Phosphorylation α Ketoglutarate State 3: 70 ± 13 % Control
  Oxidative Phosphorylation α Ketoglutarate State 4: 102 ± 16 % Control
Acid phosphatase [7]
  PMNs % Free Acid Phosphatase Activity, pH5: 71 ± 5 % Control
CF1 male mice
  Writhing Reflex: 37 % Control
Acid phosphatase [8]
  Liver % Free Acid Phosphatase Activity, pH5: 71 ± 6 % Control
In vivo
  LD50: 250 mg/kg

## C[NH+](C)[BH2-]C#N [VI, (CH3)2 NH.BH2 CN]
cAMP levels in PMNs; [10]
  activity at 5 µmol: 98%
Cathepsin [1]
  PMNs % Free Cathespin Activity, pH5: 22 ± 1 % Control
[2]
  inhibition at 1 µM: > 30%
  activity at 1 µM: 63 ± 4%
Liver mitochondria [3]
  Oxidative Phosphorylation Succinate State 3: 61 ± 5 % Control
  Oxidative Phosphorylation Succinate State 4: 126 ± 19 % Control
[4]
  Anti-inflammatory Screen: 49 % Control
[4]; text summary of Table II
  inhibition of the carrageenan induced edema in mouse foot pads: at least 50%
Cathepsin [5]
  Liver % Free Cathepsin Activity, pH5: 32 ± 5 % Control
Liver mitochondria [6]
  uncoupling with α-ketoglutarate as substrate: uncoupling
  Oxidative Phosphorylation α Ketoglutarate State 3: 45 ± 12 % Control
  Oxidative Phosphorylation α Ketoglutarate State 4: 128 ± 25 % Control
Acid phosphatase [7]
  PMNs % Free Acid Phosphatase Activity, pH5: 89 ± 4 % Control
CF1 male mice
  Writhing Reflex: 24 % Control
CF1 male mice; text summary of Table II
  inhibition of the writhing reflex: 70%
Acid phosphatase [8]
  Liver % Free Acid Phosphatase Activity, pH5: 73 ± 4 % Control
In vivo
  LD50: 39 mg/kg

## C[N+](C)([BH2-]C#N)CC[N+](C)(C)[BH2-]C#N [XI, N,N,N^1,N^1 -Tetramethylethylenediamine-bis(cyanoborane)]
cAMP levels in PMNs; [10]
  activity at 5 µmol: 94%
Cathepsin [1]
  inhibition of PMN cathepsin activity: at least 82%
  PMNs % Free Cathespin Activity, pH5: 16 ± 5 % Control
[2]
  activity at 1 µM: 85 ± 4%
Liver mitochondria [3]
  Oxidative Phosphorylation Succinate State 3: 122 ± 13 % Control
  Oxidative Phosphorylation Succinate State 4: 116 ± 8 % Control
[4]
  Anti-inflammatory Screen: 95 % Control
Cathepsin [5]
  Liver % Free Cathepsin Activity, pH5: 50 ± 7 % Control
Liver mitochondria [6]
  Oxidative Phosphorylation α Ketoglutarate State 3: 106 ± 21 % Control
  Oxidative Phosphorylation α Ketoglutarate State 4: 168 ± 38 % Control
Acid phosphatase [7]
  PMNs % Free Acid Phosphatase Activity, pH5: 84 ± 5 % Control
CF1 male mice
  Writhing Reflex: 76 % Control
Acid phosphatase [8]
  Liver % Free Acid Phosphatase Activity, pH5: 80 ± 6 % Control
In vivo
  LD50: 200 mg/kg
